Laboratory results published in patent publication US20060293307A1, “Oxazolidinone derivatives as antimicrobials” (priority 2002, published 2006).
≈ marks a conversion by molar mass, not a printed value.

Assays:
Test in all cases: MIC, agar incorporation method
S. epidermidis 358 = format: cell-based, Staphylococcus epidermidis; conditions: Staphylococcus epidermidis; S. No. 14, S. epidermidis 358; read-out: MIC
S. pneumoniae ATCC 6303 = format: cell-based, Streptococcus pneumoniae; conditions: Streptococcus pneumoniae, ATCC6303; S. No. 50, S. pneumoniae ATCC 6303; read-out: MIC
S. pneumoniae 1256 = format: cell-based, Streptococcus pneumoniae; conditions: Streptococcus pneumoniae; S. No. 56, S. pneumoniae 1256; read-out: MIC
Moraxella cata. M2 = format: cell-based; conditions: S. No. 59, Moraxella cata. M2; read-out: MIC
S. aureus ATCC29213 = format: cell-based, Staphylococcus aureus; conditions: Staphylococcus aureus; S. No. 2, S. aureus ATCC29213; read-out: MIC
S. pneumoniae AB 23 = format: cell-based, Streptococcus pneumoniae; conditions: Streptococcus pneumoniae, AB23; S. No. 43, S. pneumoniae AB 23; read-out: MIC
S. pneumoniae AB 16 = format: cell-based, Streptococcus pneumoniae; conditions: Streptococcus pneumoniae, AB16; S. No. 39, S. pneumoniae AB 16; read-out: MIC
S. aureus (MRSA) 21299 = format: cell-based, Staphylococcus aureus; conditions: Staphylococcus aureus; S. No. 5, S. aureus (MRSA) 21299; read-out: MIC
[1] = test system: Serratia marcescens 12999; format: cell-based; conditions: S. No. 29, Serratia marcescens 12999; read-out: MIC
E. faecium 398(VRE) = format: cell-based, Enterococcus faecium; conditions: Enterococcus faecium; S. No. 22, E. faecium 398(VRE); read-out: MIC
S. aureus (MRSA) 15187 = format: cell-based, Staphylococcus aureus; conditions: Staphylococcus aureus; S. No. 4, S. aureus (MRSA) 15187; read-out: MIC
S. aureus SG 511 = format: cell-based, Staphylococcus aureus; conditions: Staphylococcus aureus, SG511; S. No. 3, S. aureus SG 511; read-out: MIC
S. epidermidis 823 = format: cell-based, Staphylococcus epidermidis; conditions: Staphylococcus epidermidis; S. No. 12, S. epidermidis 823; read-out: MIC
S. pneumoniae AB4 = format: cell-based, Streptococcus pneumoniae; conditions: Streptococcus pneumoniae; S. No. 33, S. pneumoniae AB4; read-out: MIC
(MRSA) 562 = format: cell-based, Staphylococcus aureus; conditions: Staphylococcus aureus; S. No. 8, (MRSA) 562; read-out: MIC
S. pneumoniae 217 = format: cell-based, Streptococcus pneumoniae; conditions: Streptococcus pneumoniae; S. No. 38, S. pneumoniae 217; read-out: MIC
S. pneumoniae 1275 = format: cell-based, Streptococcus pneumoniae; conditions: Streptococcus pneumoniae; S. No. 57, S. pneumoniae 1275; read-out: MIC
S. haemo ATCC 29970 = format: cell-based; conditions: S. No. 15, S. haemo ATCC 29970; read-out: MIC
S. pneumoniae AB-2 = format: cell-based, Streptococcus pneumoniae; conditions: Streptococcus pneumoniae, AB2; S. No. 31, S. pneumoniae AB-2; read-out: MIC
S. pneumoniae AB 17 = format: cell-based, Streptococcus pneumoniae; conditions: Streptococcus pneumoniae, AB17; S. No. 40, S. pneumoniae AB 17; read-out: MIC
S. pyogenes 19615 = format: cell-based, Streptococcus pyogenes; conditions: Streptococcus pyogenes; S. No. 51, S. pyogenes 19615; read-out: MIC
E. faecalis 29212 = format: cell-based; conditions: Enterococcus faecalis; S. No. 17, E. faecalis 29212; read-out: MIC
E. durans 581 = format: cell-based; conditions: Enterococcus durans; S. No. 24, E. durans 581; read-out: MIC
Moraxella M1 = format: cell-based; conditions: S. No. 58, Moraxella M1; read-out: MIC
[2] = test system: S. epidermidis ATCC 12228; format: cell-based, Staphylococcus epidermidis; conditions: Staphylococcus epidermidis, ATCC12228; S. No. 10, S. epidermidis ATCC 12228; read-out: MIC
S. pneumoniae AB 30 = format: cell-based, Streptococcus pneumoniae; conditions: Streptococcus pneumoniae, AB30; S. No. 47, S. pneumoniae AB 30; read-out: MIC
E. faecalis 21777 = format: cell-based; conditions: Enterococcus faecalis; S. No. 18, E. faecalis 21777; read-out: MIC
E. coli 25922 = format: cell-based; conditions: Escherichia coli; S. No. 25, E. coli 25922; read-out: MIC
S. pyogenes 25147 = format: cell-based, Streptococcus pyogenes; conditions: Streptococcus pyogenes; S. No. 52, S. pyogenes 25147; read-out: MIC
[3] = test system: S. epidermidis (MRSE)32965; format: cell-based, Staphylococcus epidermidis; conditions: Staphylococcus epidermidis; S. No. 13, S. epidermidis (MRSE)32965; read-out: MIC
S. pneumoniae 1251 = format: cell-based, Streptococcus pneumoniae; conditions: Streptococcus pneumoniae; S. No. 54, S. pneumoniae 1251; read-out: MIC
S. aureus (Smith 49951) = format: cell-based, Staphylococcus aureus; conditions: Staphylococcus aureus; S. No. 9, S. aureus (Smith 49951); read-out: MIC
S. aureus (MRSA) ST450 = format: cell-based, Staphylococcus aureus; conditions: Staphylococcus aureus; S. No. 6, S. aureus (MRSA) ST450; read-out: MIC
S. pneumoniae ATCC 49619 = format: cell-based, Streptococcus pneumoniae; conditions: Streptococcus pneumoniae, ATCC49619; S. No. 48, S. pneumoniae ATCC 49619; read-out: MIC
Acinetobacter 9956 = format: cell-based; conditions: S. No. 30, Acinetobacter 9956; read-out: MIC
S. pneumoniae AB 21 = format: cell-based, Streptococcus pneumoniae; conditions: Streptococcus pneumoniae, AB21; S. No. 41, S. pneumoniae AB 21; read-out: MIC

| SMILES | MIC (S. epidermidis 358) | MIC (S. pneumoniae ATCC 6303) | MIC (S. pneumoniae 1256) | MIC (Moraxella cata. M2) | MIC (S. aureus ATCC29213) | MIC (S. pneumoniae AB 23) | MIC (S. pneumoniae AB 16) | MIC (S. aureus (MRSA) 21299) | MIC [1] | MIC (E. faecium 398(VRE)) | MIC (S. aureus (MRSA) 15187) | MIC (S. aureus SG 511) | MIC (S. epidermidis 823) | MIC (S. pneumoniae AB4) | MIC ((MRSA) 562) | MIC (S. pneumoniae 217) | MIC (S. pneumoniae 1275) | MIC (S. haemo ATCC 29970) | MIC (S. pneumoniae AB-2) | MIC (S. pneumoniae AB 17) | other results |
| --- | --- | --- | --- | --- | --- | --- | --- | --- | --- | --- | --- | --- | --- | --- | --- | --- | --- | --- | --- | --- | --- |
| CC(=O)NC[C@H]1CN(c2ccc(N3CCN(c4ccc(C=O)o4)CC3)c(F)c2)C(=O)O1 [Compound No. 3, (S)—N-[[3-[3-Fluoro-4-[4-(5-formyl-2-furyl)-1-piperazinyl]phenyl]-2-oxo-5-oxazolidinyl]methyl]acetamide] | 0.5 µg/mL (≈ 1.16 µM) | 0.25 µg/mL (≈ 0.581 µM) | 0.5 µg/mL (≈ 1.16 µM) | 1 µg/mL (≈ 2.32 µM) | 1 µg/mL (≈ 2.32 µM) | 0.25 µg/mL (≈ 0.581 µM) | 0.25 µg/mL (≈ 0.581 µM) | 0.5 µg/mL (≈ 1.16 µM) | > 16 µg/mL | 0.5 µg/mL (≈ 1.16 µM) | 1 µg/mL (≈ 2.32 µM) | 1 µg/mL (≈ 2.32 µM) | 0.5 µg/mL (≈ 1.16 µM) | 0.25 µg/mL (≈ 0.581 µM) | 0.5 µg/mL (≈ 1.16 µM) | 0.25 µg/mL (≈ 0.581 µM) | < 0.125 µg/mL | 0.25 µg/mL (≈ 0.581 µM) | < 0.125 µg/mL | < 0.125 µg/mL | MIC (S. pyogenes 19615): 0.25 µg/mL (≈ 0.581 µM); MIC (E. faecalis 29212): 0.5 µg/mL (≈ 1.16 µM); MIC (E. durans 581): 0.5 µg/mL (≈ 1.16 µM); MIC (Moraxella M1): 2 µg/mL (≈ 4.65 µM); MIC [2]: 0.25 µg/mL (≈ 0.581 µM); MIC (S. pneumoniae AB 30): 0.25 µg/mL (≈ 0.581 µM); MIC (E. faecalis 21777): 0.5 µg/mL (≈ 1.16 µM); MIC (E. coli 25922): > 16 µg/mL; MIC (S. pyogenes 25147): 0.25 µg/mL (≈ 0.581 µM); MIC [3]: 0.5 µg/mL (≈ 1.16 µM); MIC (S. pneumoniae 1251): 0.25 µg/mL (≈ 0.581 µM); MIC (S. aureus (Smith 49951)): 0.5 µg/mL (≈ 1.16 µM); MIC (S. aureus (MRSA) ST450): 1 µg/mL (≈ 2.32 µM); MIC (S. pneumoniae ATCC 49619): 0.25 µg/mL (≈ 0.581 µM); MIC (Acinetobacter 9956): > 16 µg/mL; MIC (S. pneumoniae AB 21): 0.25 µg/mL (≈ 0.581 µM) |
| CC(=O)NC[C@H]1CN(c2ccc(N3CCN(c4ccc([N+](=O)[O-])o4)CC3)c(F)c2)C(=O)O1 [Compound No. 4, (S)—N-[[3-[3-Fluoro-4-[4-(5-nitro-2-furyl)-1-piperazinyl]phenyl]-2-oxo-5-oxazolidinyl]methyl]acetamide] | 4 µg/mL (≈ 8.94 µM) | 4 µg/mL (≈ 8.94 µM) | 4 µg/mL (≈ 8.94 µM) | > 16 µg/mL | 16 µg/mL (≈ 35.8 µM) | 8 µg/mL (≈ 17.9 µM) | 8 µg/mL (≈ 17.9 µM) | 8 µg/mL (≈ 17.9 µM) | > 16 µg/mL | 4 µg/mL (≈ 8.94 µM) | 8 µg/mL (≈ 17.9 µM) | 16 µg/mL (≈ 35.8 µM) | 4 µg/mL (≈ 8.94 µM) | 8 µg/mL (≈ 17.9 µM) | 16 µg/mL (≈ 35.8 µM) | 4 µg/mL (≈ 8.94 µM) | 2 µg/mL (≈ 4.47 µM) | 4 µg/mL (≈ 8.94 µM) | 8 µg/mL (≈ 17.9 µM) | 4 µg/mL (≈ 8.94 µM) | MIC (S. pyogenes 19615): 4 µg/mL (≈ 8.94 µM); MIC (E. faecalis 29212): 8 µg/mL (≈ 17.9 µM); MIC (E. durans 581): 4 µg/mL (≈ 8.94 µM); MIC (Moraxella M1): > 16 µg/mL; MIC [2]: 4 µg/mL (≈ 8.94 µM); MIC (S. pneumoniae AB 30): 4 µg/mL (≈ 8.94 µM); MIC (E. faecalis 21777): 8 µg/mL (≈ 17.9 µM); MIC (E. coli 25922): > 16 µg/mL; MIC (S. pyogenes 25147): 4 µg/mL (≈ 8.94 µM); MIC [3]: 4 µg/mL (≈ 8.94 µM); MIC (S. pneumoniae 1251): 4 µg/mL (≈ 8.94 µM); MIC (S. aureus (Smith 49951)): 16 µg/mL (≈ 35.8 µM); MIC (S. aureus (MRSA) ST450): 8 µg/mL (≈ 17.9 µM); MIC (S. pneumoniae ATCC 49619): 4 µg/mL (≈ 8.94 µM); MIC (Acinetobacter 9956): > 16 µg/mL; MIC (S. pneumoniae AB 21): 8 µg/mL (≈ 17.9 µM) |
